Results published in patent publication US12458602B2, “Realizing the nano-amorphous state of materials inside nano-porous templates” (The Chinese University of Hong Kong, priority 2021, dated 2025).

Test: In-vitro dissolution test in deionized water
Type: physicochemical
Details: room temperature
Protocol: The total drug dose is about 50 mg dissolved in 1 L of deionized water at the room temperature. In order to obtain the concentration versus time plot, a series of samples (3 mL) are withdrawn at predetermined time points, and the same amount of fresh media is added back to maintain a constant volume (1 L). These withdrawn samples are filtered by 0.22 μm MCE filters, and their concentrations are then determined with a UV spectrophotometer.

Compound | drug released in 6 hours [%]
CC(C(=O)O)c1ccc(-c2ccccc2)c(F)c1 (centres unmarked) [Flurbiprofen crystal, Flurbiprofen] | 9.5
CCC(COC(=O)c1cc(OC)c(OC)c(OC)c1)(c1ccccc1)N(C)C (centres unmarked) [Trimebutine crystal, Trimebutine] | 1.18
